Entries after “also recorded” stand apart in the source; their conditions may differ.
How the values were obtained:
Assay type in all cases: cell-based
TF-1 shRNA #a cells = assay: Cell number after bitopertin treatment, RPS19 knockdown TF-1 cells; conditions: 4 nM or 37 nM bitopertin, 2 days (day 4 to day 6), doxycycline and GMCSF
Description: (§1) Prior to treatment with bitopertin, the TF-1/shRNA #a cells were treated with doxycycline for 4 days to induce RPS19 knockdown by shRNA #a. TF-1/scramble shRNA cells were treated similarly as an experimental control. On day 4, both TF-1/shRNA #a and TF-1/scramble shRNA cells were seeded to the 12-well cell culture plates at a density of 1×10^5 cells per well. Bitopertin was added to the cells in 12-well plates for 48 hours of treatment from day 4 to day 6. […] Each of the TF-1 cells were also treated with doxycycline and GMCSF, which induces shRNA expression and stimulates proliferation, for the entirety of the experiment.
(§2) We investigated if blocking the uptake of heme biosynthesis pathway precursor glycine into cells with bitopertin could restore the balance between heme and globin and reverse the anti-proliferative effects caused by RPS19 knockdown. To test this hypothesis, similarly as above, washed cells were seeded in 6-well plates with doxycycline and GMSCSF to induce shRNA expression and cell proliferation for four days. On day 4, 1×10^5 cells were seeded into a 12-well plate with 4 nM or 37 nM bitopertin. After two days of treatment with bitopertin, we enumerated cell numbers.

[1] = test system: TF-1 cells expressing scrambled shRNA; assay: Cell number after bitopertin treatment, scrambled shRNA TF-1 cells; conditions: 4 nM or 37 nM bitopertin, 2 days (day 4 to day 6), doxycycline and GMCSF
Description: as §1, §2

TF-1/shRNA #b cells = assay: CTG cell viability after bitopertin treatment, RPS19 knockdown TF-1 cells; conditions: varying doses, 1 μM top concentration, 9 points 3-fold dilutions, 2 days, doxycycline and GMCSF
Description: The cells were treated with (1) doxycycline during the entire cell culture period to induce shRNA expression; (2) GMCSF during the entire 6 days of cell culture period to induce proliferation. At day 4 of cell culture, the TF-1 cells were seeded to the 96-well cell culture plates at a density of 1×10^4 cells per well, and were treated with varying doses of bitopertin for two days of the culture period, from day 4 to day 6.
Further, in a similar setup, an equal number of cells were seeded on to 96-well plates after four days of doxycycline treatment and incubated with varying doses of bitopertin (1 μM top concentration, 9 points 3-fold dilutions) for two days and on day 6, we performed a CTG assay to measure the cell viability. The cells were cultured in the presence of GMCSF during the entire cell culture period.

RPS19 protein = RPS19 protein levels by western blot in TF-1 stable cell lines; conditions: TF-1 stable line, doxycycline-induced shRNA, by day 5
Description: To generate an RPS19 deficient Diamond blackfan anemia (DBA) model, a TF-1 erythroid cell line was transduced with lentivirus encoding shRNAs targeting RPS19 (referred to as “shRNA #a” and “shRNA #b”) and a scrambled shRNA control (referred to as “Scramble shRNA” or “Scrambled”) (See Table 1). Stable cell lines were generated by selecting the infected cells with puromycin (1 ug/ml) for three weeks. The shRNA expression is doxycycline inducible. In the stable cell lines, RPS19 mRNA expression was measured using qRT-PCR after two (FIG. 1A) and four (FIG. 1B) days of doxycycline treatment. […] Further, RPS19 protein levels were decreased by more than 70% by shRNA #b by day 5 (FIG. 2A and FIG. 2B). The antibodies used in determining the RPS19 protein levels are described in Table 1.

TF-1 cells [2] = assay: Cell growth of TF-1 stable lines by cell counting with trypan blue staining; conditions: 6 days of culture with doxycycline; for growth inhibition (cell count): EPO; for effect on cell proliferation (cell count) compared to scrambled shRNA: GMCSF (2 ng/ml)
Text: RPS19 knockdown in TF-1 cells has been previously reported to adversely affect the growth of erythroid cells due to an imbalance in heme and globin synthesis. See, e.g., Yang, Z. et al. Sci Transl Med 8, 338ra67 (2016). The TF-1 cell line is a cell line of immature erythroid origin that requires cytokines such as granulocyte-macrophage colony-stimulating factor (GMCSF) or erythropoietin (EPO) for its growth. The cell growth capability of TF-1 stable lines shRNA #a, shRNA #b, and scrambled shRNA were assessed in vitro by cell counting after 6-days of cell culture in the presence of doxycycline induction. Cells were washed from regular growth media and seeded in equal numbers into media containing either GMCSF (2 ng/ml), a growth factor that induces proliferation of the TF-1 cells, or EPO (Ing/ml), a hormone that induces growth of the TF-1 cells and induces their differentiation along the erythroid lineage. Cell growth was monitored by counting cells with trypan blue staining (FIG. 3A and FIG. 3B).

TF-1 cells [3] = assay: Cell viability of TF-1 stable lines by CellTiter-Glo (CTG); conditions: GMCSF and EPO stimulus, doxycycline, 96-well plates
Description: Similarly, the cell growth capability of TF-1 stable lines shRNA #a, shRNA #b, and scrambled shRNA was assessed in vitro by cell viability assay. As described above, washed cells were seeded into 96 well plates in equal numbers in media containing either GMCSF or EPO (FIG. 4A and FIG. 4B) on separate plates for each day of readout. Cell viability was measured using the CellTiter-Glo® (CTG), which determines the number of viable cells in culture by quantifying ATP, which indicates the presence of metabolically active cells.

Molecule	effect on cell number of RPS19 knockdown cells (TF-1 shRNA #a cells)	effect on cell number of scrambled shRNA cells [1]	effect on cell viability (CTG) compared to TF-1/scrambled shRNA cells (TF-1/shRNA #b cells)	decrease of RPS19 protein levels (RPS19 protein)	growth inhibition (cell count) (TF-1 cells [2])	effect on cell proliferation (cell count) compared to scrambled shRNA (TF-1 cells [2])	cell growth inhibition (CTG cell viability) compared to scrambled shRNA (TF-1 cells [3])
C[C@H](Oc1ccc(S(C)(=O)=O)cc1C(=O)N1CCN(c2ncc(C(F)(F)F)cc2F)CC1)C(F)(F)F [bitopertin]	reverses the anti-proliferative effects; also recorded: protective effect	did not affect	dose-dependent bitopertin protective effect				
shRNA #b: lentivirus-encoded, doxycycline-inducible shRNA targeting RPS19, GCTTGCTCCCTACGATGAGAA (SEQ ID NO: 2)				more than 70%	dose-dependent growth inhibition	more substantial effect	high degree inhibition in cell growth
shRNA #a: lentivirus-encoded, doxycycline-inducible shRNA targeting RPS19, GAGATCTGGACAGAATCGC (SEQ ID NO: 1)					dose-dependent growth inhibition	moderate effect	moderate cell growth inhibitory effects

Source: US20240325382A1, “COMPOSITIONS AND METHODS FOR TREATING ANEMIA ASSOCIATED WITH A RIBOSOMAL DISORDER” (Disc Medicine, Inc., priority 2021, published 2024)
